Measurements published in BindingDB's records for doi:10.7270/Q25D8Q92 (Burnham Center For Chemical Genomics, 2011).

Target: T1, Bcl-2-related protein A1 (Mus musculus, UniProt Q07440)
T1 sequence (Q07440 whole entry): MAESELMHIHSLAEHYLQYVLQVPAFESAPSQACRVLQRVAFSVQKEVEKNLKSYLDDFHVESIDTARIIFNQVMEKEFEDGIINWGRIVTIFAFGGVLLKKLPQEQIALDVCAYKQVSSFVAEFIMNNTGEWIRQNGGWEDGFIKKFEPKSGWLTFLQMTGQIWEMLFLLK
Assay: Bfl-1 inhibitors in counterscreen, dose response, biochemical (AID 504689)

For `C#CCOCCOCCOCCNc1nc(N2CCN(C(=O)[C@H](CCCCN)n3cc([C@@H](N)C(C)CC)nn3)CC2)nc(N2CCN(C(=O)[C@H](Cc3ccc(O)cc3)n3cc([C@@H](N)C(C)CC)nn3)CC2)n1` (stereo not given in full) [SMR000391090], which IC50 is on record?
The IC50 was > 20 µM.

For `C#CCOCCOCCOCCNc1nc(N2CCN(C(=O)[C@H](CCCCN)n3cc([C@@H](N)CC(C)C)nn3)CC2)nc(N2CCN(C(=O)[C@H](Cc3cc4ccccc4[nH]3)n3cc([C@@H](N)Cc4ccc(O)cc4)nn3)CC2)n1` [SMR000391143], which IC50 is on record?
Its IC50 is > 20 µM.

`C#CCOCCOCCOCCNc1nc(N2CCN(C(=O)[C@H](Cc3cc4ccccc4[nH]3)n3cc([C@@H](N)C(C)CC)nn3)CC2)nc(N2CCN(C(=O)[C@H](Cc3cc4ccccc4[nH]3)n3cc([C@@H](N)Cc4ccc(O)cc4)nn3)CC2)n1` (stereo not given in full) [SMR000391146] was tested. Which IC50 did it give?
Its IC50 is 11.7 µM.

For `CC1CC(C)(C)N2C(=O)/C(=N\NC(N)=S)c3cccc1c32` (stereo not given) [SMR000414933], which IC50 is on record?
The IC50 was > 20 µM.

`CCN(CC)CCOC(=O)c1ccc(N=CC(C#N)c2nc(-c3ccc(OC)c(OC)c3)cs2)cc1` (stereo not given) [SMR000434079] was tested. Which IC50 did it give?
The IC50 was 3.44 µM.

Which IC50 does the source give for `C#CCOCCOCCOCCNc1nc(N2CCN(C(=O)C([C@@H](C)CC)n3cc(C(N)COC(=O)C(F)(F)F)nn3)CC2)nc(N2CCN(C(=O)[C@H](CCCCN)n3cc(C(N)CC(C)C)nn3)CC2)n1` (stereo not given in full) [SMR000453712] here?
The IC50 was > 20 µM.

Which IC50 does the source give for `C#CCOCCOCCOCCNc1nc(N2CCN(C(=O)CCCCCCCCCCNC(=O)Cn3cc(CCCCCN)nn3)CC2)nc(N2CCN(C(=O)CCCCCCCCCCNC(=O)Cn3cc(CCCCCN)nn3)CC2)n1` [SMR001231146] here?
Its IC50 is 13.3 µM.

With `C#CCOCCOCCOCCNc1nc(N2CCN(C(=O)CCCCCCCCCCNC(=O)[C@H](CO)n3cc(CCCSC)nn3)CC2)nc(N2CCN(C(=O)CCCCCCCCCCNC(=O)[C@H](CCCCN)n3cc(CCO)nn3)CC2)n1` [SMR001318322] as the compound, how does the IC50 read?
The IC50 was 14.2 µM.

Which IC50 does the source give for `Cc1cccc2c1C(=NNC(N)=S)C(=O)N2C1OC(CO)C(O)C(O)C1O` (stereo not given) [The compound has not trivial name.] here?
Its IC50 is > 20 µM.

How did the IC50 turn out when `NC(=S)NN=C1C(=O)N(C2OC(=O)c3ccccc32)c2ccccc21` (stereo not given) [[(Z)-[2-oxo-1-(3-oxo-1H-isobenzofuran-1-yl)-3-indolylidene]amino]thiourea] was run?
Its IC50 is > 20 µM.
